Consider 28 compounds from patent publication US9539252B2, “Piperazine-substituted benzothiophene derivatives as antipsychotic agents” (OTSUKA PHARMACEUTICAL CO., LTD., priority 2011, dated 2017).

SMILES strings stand for the structures.

A short description of the data set: Solubility in oil (sesame oil, benzyl benzoate), visual observation. The conditions noted are these: oil or lipid, thermodynamic from solid.

For orientation: solubility means the dissolved amount per volume that the medium holds. Read a high solubility as much dissolved substance. For `O=C(OCN1C(=O)CCc2ccc(OCCCCN3CCN(c4cccc5sccc45)CC3)cc21)c1ccc2occc2c1` [Example 128, benzofuran-5-carboxylic acid 7-[4-(4-benzo[b]thiophen-4-ylpiperazin-1-yl)butoxy]-2-oxo-3,4-dihydro-2H-quinolin-1-ylmethyl ester], the solubility (benzyl benzoate) is greater than 100 mg/mL.

In turn, `CONC(=O)OCn1c(=O)ccc2ccc(OCCCCN3CCN(c4cccc5sccc45)CC3)cc21` [Example 129, N-methoxycarbamic acid (7-{4-[4-(benzo[b]thiophen-4-yl)piperazin-1-yl]butoxy}-2-oxo-2H-quinolin-1-yl)methyl] returned a solubility (benzyl benzoate) greater than 100 mg/mL.

`O=C(OCn1c(=O)ccc2ccc(OCCCCN3CCN(c4cccc5sccc45)CC3)cc21)C1CCOCC1` [Example 130, tetrahydropyran-4-carboxylic acid 7-[4-(4-benzo[b]thiophen-4-ylpiperazin-1-yl)butoxy]-2-oxo-2H-quinolin-1-ylmethyl ester] displayed a solubility (benzyl benzoate) greater than 100 mg/mL.

In the case of `O=C(OCN1C(=O)CCc2ccc(OCCCCN3CCN(c4cccc5sccc45)CC3)cc21)c1cccs1` [Example 131, thiophene-2-carboxylic acid 7-[4-(4-benzo[b]thiophen-4-ylpiperazin-1-yl)butoxy]-2-oxo-3,4-dihydro-2H-quinolin-1-ylmethyl ester], the solubility (benzyl benzoate) was greater than 100 mg/mL.

`O=C(OCN1C(=O)CCc2ccc(OCCCCN3CCN(c4cccc5sccc45)CC3)cc21)c1cccnc1` [Example 132, nicotinic acid 7-[4-(4-benzo[b]thiophen-4-ylpiperazin-1-yl)butoxy]-2-oxo-3,4-dihydro-2H-quinolin-1-ylmethyl ester]: the solubility (benzyl benzoate) is greater than 100 mg/mL.

On to `CCCCCCCCCCCCOC(=O)OCn1c(=O)ccc2ccc(OCCCCN3CCN(c4cccc5sccc45)CC3)cc21` [Example 134, carbonic acid 7-[4-(4-benzo[b]thiophen-4-ylpiperazin-1-yl)butoxy]-2-oxo-2H-quinolin-1-ylmethyl ester dodecyl ester], for which the solubility is, setting by setting: (benzyl benzoate) greater than 100 mg/mL; (sesame oil) greater than 100 mg/mL.

Consider `CCCCCCCCCCOC(=O)OCn1c(=O)ccc2ccc(OCCCCN3CCN(c4cccc5sccc45)CC3)cc21` [Example 135, carbonic acid 7-[4-(4-benzo[b]thiophen-4-ylpiperazin-1-yl)butoxy]-2-oxo-2H-quinolin-1-ylmethyl ester decyl ester], for which the solubility was greater than 100 mg/mL (benzyl benzoate) and greater than 100 mg/mL (sesame oil).

Compound `O=C(OCn1c(=O)ccc2ccc(OCCCCN3CCN(c4cccc5sccc45)CC3)cc21)C1CCC1` [Example 136, cyclobutanecarboxylic acid 7-[4-(4-benzo[b]thiophen-4-ylpiperazin-1-yl)butoxy]-2-oxo-2H-quinolin-1-ylmethyl ester] displayed a solubility (benzyl benzoate) greater than 100 mg/mL.

For the setting “benzyl benzoate”, `O=C(OCn1c(=O)ccc2ccc(OCCCCN3CCN(c4cccc5sccc45)CC3)cc21)c1ccc2occc2c1` [Example 137, benzofuran-5-carboxylic acid 7-[4-(4-benzo[b]thiophen-4-ylpiperazin-1-yl)butoxy]-2-oxo-2H-quinolin-1-ylmethyl ester] gave a solubility greater than 100 mg/mL.

For `O=C(NCCC(F)(F)F)OCn1c(=O)ccc2ccc(OCCCCN3CCN(c4cccc5sccc45)CC3)cc21` [Example 139, N-(3,3,3-trifluoropropyl)carbamic acid 7-[4-(4-benzo[b]thiophen-4-ylpiperazin-1-yl)butoxy]-2-oxo-2H-quinolin-1-ylmethyl ester], under “benzyl benzoate”, the solubility was greater than 100 mg/mL.

Compound `O=C(OC/C=C/c1ccccc1)OCn1c(=O)ccc2ccc(OCCCCN3CCN(c4cccc5sccc45)CC3)cc21` [Example 140, carbonic acid 7-[4-(4-benzo[b]thiophen-4-ylpiperazin-1-yl)butoxy]-2-oxo-2H-quinolin-1-ylmethyl ester (E)-3-phenyl-allyl ester] had a solubility (benzyl benzoate) greater than 100 mg/mL.

As for `O=C(OCn1c(=O)ccc2ccc(OCCCCN3CCN(c4cccc5sccc45)CC3)cc21)c1cccs1` [Example 141, thiophene-2-carboxylic acid 7-[4-(4-benzo[b]thiophen-4-ylpiperazin-1-yl)butoxy]-2-oxo-2H-quinolin-1-ylmethyl ester], the solubility (benzyl benzoate) is greater than 100 mg/mL.

In the case of `CCCCCCCCCCOC(=O)OCN1C(=O)CCc2ccc(OCCCCN3CCN(c4cccc5sccc45)CC3)cc21` [Example 142, carbonic acid 7-[4-(4-benzo[b]thiophen-4-ylpiperazin-1-yl)butoxy]-2-oxo-3,4-dihydro-2H-quinolin-1-ylmethyl ester decyl ester], the solubility by setting is: (benzyl benzoate) greater than 100 mg/mL; (sesame oil) greater than 100 mg/mL.

Turning to `CCCCCCCCCCCCCCCCOC(=O)OCN1C(=O)CCc2ccc(OCCCCN3CCN(c4cccc5sccc45)CC3)cc21` [Example 144, carbonic acid 7-[4-(4-benzo[b]thiophen-4-ylpiperazin-1-yl)butoxy]-2-oxo-3,4-dihydro-2H-quinolin-1-ylmethyl ester hexadecyl ester], the solubility was greater than 100 mg/mL (benzyl benzoate) and greater than 100 mg/mL (sesame oil).

Turning to `CCCCCCCOC(=O)OCN1C(=O)CCc2ccc(OCCCCN3CCN(c4cccc5sccc45)CC3)cc21` [Example 145, carbonic acid 7-[4-(4-benzo[b]thiophen-4-ylpiperazin-1-yl)butoxy]-2-oxo-3,4-dihydro-2H-quinolin-1-ylmethyl ester heptyl ester], the solubility (benzyl benzoate) is greater than 100 mg/mL.

Under “benzyl benzoate”, `O=C(OCn1c(=O)ccc2ccc(OCCCCN3CCN(c4cccc5sccc45)CC3)cc21)OC1CCCCC1` [Example 146, carbonic acid 7-[4-(4-benzo[b]thiophen-4-ylpiperazin-1-yl)butoxy]-2-oxo-2H-quinolin-1-ylmethyl ester cyclohexyl ester] came in with a solubility greater than 100 mg/mL.

Compound `O=C(OCN1C(=O)CCc2ccc(OCCCCN3CCN(c4cccc5sccc45)CC3)cc21)OCC(F)(F)F` [Example 147, carbonic acid 7-[4-(4-benzo[b]thiophen-4-ylpiperazin-1-yl)butoxy]-2-oxo-3,4-dihydro-2H-quinolin-1-ylmethyl ester 2,2,2-trifluoro-ethyl ester] yielded a solubility (benzyl benzoate) greater than 100 mg/mL.

On to `CC(C)(C)OC(=O)CC(=O)OCn1c(=O)ccc2ccc(OCCCCN3CCN(c4cccc5sccc45)CC3)cc21` [Example 148, malonic acid 7-[4-(4-benzo[b]thiophen-4-ylpiperazin-1-yl)butoxy]-2-oxo-2H-quinolin-1-ylmethyl ester tert-butyl ester], for which the solubility (benzyl benzoate) was greater than 100 mg/mL.

For `CCCCCCCCOC(=O)OCN1C(=O)CCc2ccc(OCCCCN3CCN(c4cccc5sccc45)CC3)cc21` [Example 149, carbonic acid 7-[4-(4-benzo[b]thiophen-4-ylpiperazin-1-yl)butoxy]-2-oxo-3,4-dihydro-2H-quinolin-1-ylmethyl ester octyl ester], the solubility is greater than 100 mg/mL (benzyl benzoate) and greater than 100 mg/mL (sesame oil).

`O=C(OCN1C(=O)CCc2ccc(OCCCCN3CCN(c4cccc5sccc45)CC3)cc21)OC1CCCCC1` [Example 150, carbonic acid 7-[4-(4-benzo[b]thiophen-4-ylpiperazin-1-yl)butoxy]-2-oxo-3,4-dihydro-2H-quinolin-1-ylmethyl ester cyclohexyl ester]: the solubility was greater than 100 mg/mL (benzyl benzoate) and greater than 100 mg/mL (sesame oil).

`CCCCOC(=O)OCN1C(=O)CCc2ccc(OCCCCN3CCN(c4cccc5sccc45)CC3)cc21` [Example 151, carbonic acid 7-[4-(4-benzo[b]thiophen-4-ylpiperazin-1-yl)butoxy]-2-oxo-3,4-dihydro-2H-quinolin-1-ylmethyl ester butyl ester] had a solubility (benzyl benzoate) greater than 100 mg/mL.

With `CN(Cc1ccccn1)C(=O)OCn1c(=O)ccc2ccc(OCCCCN3CCN(c4cccc5sccc45)CC3)cc21` [Example 152, N-methyl-N-pyridin-2-ylmethylcarbamic acid 7-[4-(4-benzo[b]thiophen-4-ylpiperazin-1-yl)butoxy]-2-oxo-2H-quinolin-1-ylmethyl ester], the solubility (benzyl benzoate) was greater than 100 mg/mL.

Turning to `O=C(OCn1c(=O)ccc2ccc(OCCCCN3CCN(c4cccc5sccc45)CC3)cc21)N1CCSCC1` [Example 153, thiomorpholine-4-carboxylic acid 7-[4-(4-benzo[b]thiophen-4-ylpiperazin-1-yl)butoxy]-2-oxo-2H-quinolin-1-ylmethyl ester], the solubility (benzyl benzoate) was greater than 100 mg/mL.

Consider `CCCCCCCCCCCC(=O)OCN1C(=O)CC(C)(C)c2ccc(OCCCCN3CCN(c4cccc5sccc45)CC3)cc21` [Example 154, dodecanoic acid 7-[4-(4-benzo[b]thiophen-4-ylpiperazin-1-yl)butoxy]-4,4-dimethyl-2-oxo-3,4-dihydro-2H-quinolin-1-ylmethyl ester], for which the solubility runs as follows: (benzyl benzoate) greater than 100 mg/mL; (sesame oil) greater than 100 mg/mL.

Consider `CCCCCCCCCCOC(=O)OCN1C(=O)CC(C)(C)c2ccc(OCCCCN3CCN(c4cccc5sccc45)CC3)cc21` [Example 156, carbonic acid 7-[4-(4-benzo[b]thiophen-4-ylpiperazin-1-yl)-butoxy]-4,4-dimethyl-2-oxo-3,4-dihydro-2H-quinolin-1-ylmethyl ester decyl ester], for which the solubility reads like this: (benzyl benzoate) greater than 100 mg/mL; (sesame oil) greater than 100 mg/mL.

Consider `CCCCCCCCCCNC(=O)OCN1C(=O)CC(C)(C)c2ccc(OCCCCN3CCN(c4cccc5sccc45)CC3)cc21` [Example 158, N-decylcarbamic acid 7-[4-(4-benzo[b]thiophen-4-ylpiperazin-1-yl)-butoxy]-4,4-dimethyl-2-oxo-3,4-dihydro-2H-quinolin-1-ylmethyl ester], for which the solubility by setting is: (benzyl benzoate) greater than 100 mg/mL; (sesame oil) greater than 100 mg/mL.

For the setting “benzyl benzoate”, `COC(=O)OCn1c(=O)ccc2ccc(OCCCCN3CCN(c4cccc5sccc45)CC3)cc21` [Example 163, carbonic acid 7-[4-(4-benzo[b]thiophen-4-ylpiperazin-1-yl)butoxy]-2-oxo-2H-quinolin-1-ylmethyl ester methyl ester] yielded a solubility greater than 100 mg/mL.

Turning to `CCCOC(=O)OCn1c(=O)ccc2ccc(OCCCCN3CCN(c4cccc5sccc45)CC3)cc21` [Example 165, carbonic acid 7-[4-(4-benzo[b]thiophen-4-ylpiperazin-1-yl)butoxy]-2-oxo-2H-quinolin-1-ylmethyl ester propyl ester], the solubility (benzyl benzoate) was greater than 100 mg/mL.
